Test results reported in patent US12162893B2 (Erasca, Inc., priority 2020, dated 2024).

biological target: T1, mutant G12C K-RAS (Homo sapiens, UniProt P01116, G12C); experiment: covalent adduct formation (CAF) with mutant G12C K-RAS; type: binding; set-up: CAF: unit not given here; conditions: Table 1, Pyrimidone Core-Morpholine Unsubstituted; after 60 minutes at 10 micromolar
T1 construct: made in house; host or cells: E. coli BL21
Experimental: Embodiments disclosed herein are further illustrated by the following examples in Tables 1-4 and the Examples hereinbelow. The Tables indicate the compound number, structure, the observed mass spectral molecular weight peak, and covalent adduct formation (CAF) with a mutant G12C K-RAS after 60 minutes at a concentration of 10 micromolar.

Q: Which “% CAF (60 min)” value does the source give for C=CC(=O)N1C[C@H](C)N(c2nc(=O)n3c4c(c(-c5ccc(F)cc5F)c(Cl)cc24)OCC3)C[C@H]1C [Example 11, 7-((2S,5R)-4-acryloyl-2,5-dimethylpiperazin-1-yl)-9-chloro-10-(2,4-difluorophenyl)-2H-[1,4]oxazino[2,3,4-ij]quinazolin-5(3H)-one] here?
A: The value was 68%.

same assay, conditions: Table 2, Pyrimidone Core-Morpholine Substituted; after 60 minutes at 10 micromolar

Q: C=CC(=O)N1CCN(c2nc(=O)n3c4c(c(-c5c(O)cccc5F)c(Cl)cc24)OC[C@H]3CO)[C@@H](C)C1 [Example 22, (3R,10S)-7-((S)-4-acryloyl-2-methylpiperazin-1-yl)-9-chloro-10-(2-fluoro-6-hydroxyphenyl)-3-(hydroxymethyl)-2H-[1,4]oxazino[2,3,4-ij]quinazolin-5(3H)-one] was tested. Which “% CAF (60 min)” value did it give?
A: The value was 87.6%.

same assay, conditions: Table 3, Pyridone Core-Morpholine Unsubstituted; after 60 minutes at 10 micromolar

Q: How did the CAF turn out when C=CC(=O)N1CCN(c2c(C#N)c(=O)n3c4c(c(-c5c(O)cccc5F)c(Cl)cc24)OCC3)[C@@H](C)C1 [Example 40, (R)-7-((S)-4-acryloyl-2-methylpiperazin-1-yl)-9-chloro-10-(2-fluoro-6-hydroxyphenyl)-5-oxo-3,5-dihydro-2H-[1,4]oxazino[2,3,4-ij]quinoline-6-carbonitrile] was run?
A: The CAF was 75.5.

Q: For C=CC(=O)N1C[C@H](C)N(c2c(C#N)c(=O)n3c4c(c(-c5c(O)cccc5F)c(Cl)cc24)OCC3)C[C@H]1C [Example 41, 7-((2S,5R)-4-acryloyl-2,5-dimethylpiperazin-1-yl)-9-chloro-10-(2-fluoro-6-hydroxyphenyl)-5-oxo-3,5-dihydro-2H-[1,4]oxazino[2,3,4-ij]quinoline-6-carbonitrile], which CAF is on record?
A: The CAF was 22.3.

same assay, conditions: Table 6; 10 μM, 1 h

Q: How did the “% CAF @ 10 μM,1 h” value turn out when C=CC(=O)N1C[C@H](C)N(c2nc(=O)n3c4c(c(-c5ccc(F)cc5F)c(Cl)cc24)OC[C@@H]3COC2CCN(C)CC2)C[C@H]1C [Example 276, (3S)-7-((2S,5R)-4-acryloyl-2,5-dimethylpiperazin-1-yl)-9-chloro-10-(2,4-difluorophenyl)-3-(((1-methylpiperidin-4-yl)oxy)methyl)-2H-[1,4]oxazino[2,3,4-ij]quinazolin-5(3H)-one] was run?
A: The value was 73.5%.

Q: Which “% CAF @ 10 μM,1 h” value does the source give for C=CC(=O)N1C[C@H](C)N(c2nc(=O)n3c4c(c(-c5ccc(F)cc5F)c(Cl)cc24)OC[C@H]3CCCN2CC[C@H](OC)C2)C[C@H]1C [Example 334, (3R)-7-((2S,5R)-4-acryloyl-2,5-dimethylpiperazin-1-yl)-9-chloro-10-(2,4-difluorophenyl)-3-(3-((S)-3-methoxypyrrolidin-1-yl)propyl)-2,3-dihydro-5H-[1,4]oxazino[2,3,4-ij]quinazolin-5-one] here?
A: The value was 84.6%.

Q: For C=CC(=O)N1CCN(c2nc(=O)n3c4c(c(-c5ccc(F)cc5F)c(Cl)cc24)OCC3)[C@@H](CO)C1 [Example 303, 7-((R)-4-acryloyl-2-(hydroxymethyl)piperazin-1-yl)-9-chloro-10-(2,4-difluorophenyl)-2,3-dihydro-5H-[1,4]oxazino[2,3,4-ij]quinazolin-5-one], which “% CAF @ 10 μM,1 h” value is on record?
A: The value was 15.4%.

Q: For C=CC(=O)N1C[C@H](C)N(c2nc(=O)n3c4c(c(-c5ccc(F)cc5F)c(Cl)cc24)OC[C@H]3CCCN2CCC(C(=O)NC3CC3)CC2)C[C@H]1C [Example 278], which “% CAF @ 10 μM,1 h” value is on record?
A: Its value is 98.3%.

Q: Which “% CAF @ 10 μM,1 h” value does the source give for C=CC(=O)N1CCN(c2nc(=O)n3c4c(c(-c5ccc(F)cc5F)cc(CC#N)c24)OCC3)CC1 [Example 289, 2-(7-(4-acryloylpiperazin-1-yl)-10-(2,4-difluorophenyl)-5-oxo-2,3-dihydro-5H-[1,4]oxazino[2,3,4-ij]quinazolin-8-yl)acetonitrile] here?
A: Its value is 13.5%.

Q: Which “% CAF @ 10 μM,1 h” value does the source give for C=CC(=O)N1C[C@H](C)N(c2nc(=O)n3c4c(c(-c5ccc(F)cc5F)c(Cl)cc24)OC[C@@H]3COC[C@@H]2CCCN2C)C[C@H]1C [Example 296, (3S)-7-((2S,5R)-4-acryloyl-2,5-dimethylpiperazin-1-yl)-9-chloro-10-(2,4-difluorophenyl)-3-((((S)-1-methylpyrrolidin-2-yl)methoxy)methyl)-2,3-dihydro-5H-[1,4]oxazino[2,3,4-ij]quinazolin-5-one] here?
A: The value was 79.8%.

Q: For C=CC(=O)N1C[C@H](C)N(c2nc(=O)n3c4c(c(-c5c(C)ccc6[nH]ncc56)c(Cl)cc24)OC[C@H]3CCCN2C[C@@H]3C[C@H]2CO3)C[C@H]1C (atropisomer, axis not shown) [Example 326, (3R,10R)-3-(3-((1S,4S)-2-oxa-5-azabicyclo[2.2.1]heptan-5-yl)propyl)-7-((2S,5R)-4-acryloyl-2,5-dimethylpiperazin-1-yl)-9-chloro-10-(5-methyl-1H-indazol-4-yl)-2,3-dihydro-5H-[1,4]oxazino[2,3,4-ij]quinazolin-5-one], which “% CAF @ 10 μM,1 h” value is on record?
A: The value was 94.2%.

Q: With C=CC(=O)N1C[C@H](C)N(c2nc(=O)n3c4c(c(-c5ccc(F)cc5F)c(Cl)cc24)OC[C@@H]3Cn2cccn2)C[C@H]1C [Example 236, (3S)-3-((1H-pyrazol-1-yl)methyl)-7-((2S,5R)-4-acryloyl-2,5-dimethylpiperazin-1-yl)-9-chloro-10-(2,4-difluorophenyl)-2H-[1,4]oxazino[2,3,4-ij]quinazolin-5(3H)-one] as the molecule, how does the “% CAF @ 10 μM,1 h” value read?
A: The value was 60.9%.

Q: How did the “% CAF @ 10 μM,1 h” value turn out when C=CC(=O)N1C[C@H](C)N(c2nc(=O)n3c4c(c(-c5c(F)cccc5C(F)F)ccc24)OCC3)C[C@H]1C [Example 200, 7-((2S,5R)-4-acryloyl-2,5-dimethylpiperazin-l-yl)-10-(2-(difluoromethyl)-6-fluorophenyl)-2,3-dihydro-5H-1,4|oxazino[2,3,4-ij]quinazolin-5-one] was run?
A: The value was 0%.

Q: Which “% CAF @ 10 μM,1 h” value does the source give for C=CC(=O)N1C[C@H](C)N(c2nc(=O)n3c4c(c(-c5c(O)cccc5F)c(Cl)cc24)OC[C@@H]3CN(C)CC(F)(F)F)C[C@H]1C (atropisomer, axis not shown) [Example 240, (3S,10S)-7-((2S,5R)-4-acryloyl-2,5-dimethylpiperazin-1-yl)-9-chloro-10-(2-fluoro-6-hydroxyphenyl)-3-((methyl(2,2,2-trifluoroethyl)amino)methyl)-2H-[1,4]oxazino[2,3,4-ij]quinazolin-5(3H)-one] here?
A: The value was 82.1%.

Q: For C=CC(=O)N1CCN(c2nc(=O)n3c4c(c(-c5c(O)cccc5F)c(Cl)cc24)OC[C@@H]3CN2CCC(F)(F)C2)[C@@H](C)C1 (atropisomer, axis not shown) [Example 228, (3S,10S)-7-((S)-4-acryloyl-2-methylpiperazin-1-yl)-9-chloro-3-((3,3-difluoropyrrolidin-1-yl)methyl)-10-(2-fluoro-6-hydroxyphenyl)-2,3-dihydro-5H-[1,4]oxazino[2,3,4-ij]quinazolin-5-one], which “% CAF @ 10 μM,1 h” value is on record?
A: Its value is 98%.

Q: How did the “% CAF @ 10 μM,1 h” value turn out when C=CC(=O)N1C[C@H](C)N(c2nc(=O)n3c4c(c(-c5c(O)cccc5F)c(Cl)cc24)OC[C@@H]3CCCN2CCOCC2)C[C@H]1C (atropisomer, axis not shown) [Example 225, (3S,10R)-7-((2S,5R)-4-acryloyl-2,5-dimethylpiperazin-1-yl)-9-chloro-10-(2-fluoro-6-hydroxyphenyl)-3-(3-morpholinopropyl)-2,3-dihydro-5H-[1,4]oxazino[2,3,4-ij]quinazolin-5-one] was run?
A: Its value is 4.4%.

Q: How did the “% CAF @ 10 μM,1 h” value turn out when C=CC(=O)N1C[C@H](C)N(c2nc(=O)n3c4c(c(-c5c(O)cccc5F)c(Cl)cc24)OC[C@H]3CN(C)CC(F)(F)F)C[C@H]1C (atropisomer, axis not shown) [Example 242, (3R,10S)-7-((2S,5R)-4-acryloyl-2,5-dimethylpiperazin-1-yl)-9-chloro-10-(2-fluoro-6-hydroxyphenyl)-3-((methyl(2,2,2-trifluoroethyl)amino)methyl)-2H-[1,4]oxazino[2,3,4-ij]quinazolin-5(3H)-one] was run?
A: Its value is 63.1%.
